Legend:
[1] = test system: pro-apoptotic signaling, cleavage of caspase-3 and PARP; test: Western blotting of FL118-treated MM cell lines; assay type: cell-based, human
Method: Western blotting: Untreated or FL118 treated (16 h) MM cell lines were washed twice with ice-cold PBS. Cell pellets were then snap-frozen and stored at −80° C. until further use. Pellets were dissolved in Radioimmunoprecipitation (RIPA) lysis buffer, supplemented with protease inhibitor cocktail (Roche) and incubated on ice for 45 minutes. Lysates were centrifuged at 14000 g for 10 minutes at 4° C. and supernatant was collected. Protein concentrations were determined by a DC protein assays (Bio-Rad). Samples were separated on 4-20% Mini-protean TGX precast gels (Bio-Rad) and proteins were transferred to Immobilon-FL PVDF membrane (Merck Millipore). After 1 h blocking with Odyssey Block Buffer (LI-COR) at room temperature, membranes were incubated with primary antibodies over night at 4° C. (anti-Mcl-1, anti-survivin Santa Cruz; anti-XIAP, anti-Bcl-2, anti-PUMA, anti-p21 Waf/Cip1, anti-PARP, anti-caspase-3 Cell Signaling Technology; anti-p53 DAKO; anti-NOXA, anti-Actin Merck Millipore). Blots were visualized by Odyssey infrared imaging (LICOR Biosciences) using IRDye 680 Goat-anti-Rabbit (LI-COR Lincoln) and IRDye 800CW Goat-anti-Mouse IgG (LI-COR Lincoln) according to manufacturer's instructions. Band intensities were quantified using Odyssey software.

[2] = Storage and heat stability of FL118; assay type: physicochemical
PDX tumors = details: in vivo; cited from earlier work

SMILES: CC[C@@]1(O)C(=O)OCc2c1cc1n(c2=O)Cc2cc3cc4c(cc3nc2-1)OCO4 [FL118]
- pro-apoptotic signaling ([1]; high- and intermediate-susceptible MM1.s and U266, 16 hours): promotes pro-apoptotic signaling
- pro-apoptotic signaling ([1]; low-susceptible L363, 16 hours): not
- stability at high temperature ([2]; 60-80° C., spray-dry process, at least a period of time): without any issues
- storage stability ([2]; before and/or after formulation, room temperature or 4° C.): highly stable
- effect on PDX tumors resistant/non-sensitive to FL118 and gemcitabine, combination with gemcitabine (PDX tumors): eliminated the PDX tumors
- effect on PDX tumors, FL118 alone (PDX tumors): effectively eliminated PDX tumors
